For 96 compounds, AC50 and activity change, negative = inhibition results are on record in PubChem BioAssay AID540268 (Broad Institute, 2011).

Calls of active or inactive are those of the source. No rule for the calls is given here.

The experiment in a line: growth inhibition of yeast carrying parasite Hsp90, dose response, anti-malarial Hsp90 inhibitor project, ATP luminescence, 48 h, cherry-picked samples (AID 540268).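 As to activity change, negative = inhibition: 0% = neutral control wells and -100% = positive control wells.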 The conditions noted are these: yeast expressing the parasite Hsp90, ATP luminescence; for activity change, negative = inhibition: at 26 µM (top of the series).

As usually defined, the AC50 is the concentration giving half of the maximal activity seen. Regarding `CCN(CC)c1ccc(/C=C2/SC(=O)N(C(C)C)C2=O)o1`, the AC50 was 13.5 µM.
On to `Cc1cccc(/C=C/C(=O)c2ccc([N+](=O)[O-])o2)c1`, for which the AC50 was 1.56 µM.
On to `Oc1cc(Cl)c(Cl)c(Cl)c1Cl`, for which the AC50 is 1.7 µM.
`CCC(=O)NC(c1ccc(Cl)cc1Cl)c1ccc2cccnc2c1O` (stereo unspecified): the AC50 was 3.96 µM.
The same measure, in the same setting: then `O=C1C=CC(=O)N1CCNc1ncc(C(F)(F)F)cc1Cl`, with 0.674 µM; and `Cc1ccc(-n2c(Cl)c(Cl)nc(Cl)c2=O)cc1`, with 1.2 µM; and `Cc1ccc2c(c1)C(=O)C(=O)N2Cc1ccc(C(F)(F)F)cc1`, with 7.78 µM.
In the case of `COc1cc2cnc(-c3ccccc3)c(C(=O)c3ccc(F)cc3)c2cc1OC`, the AC50 is 3.01 µM.
Take `CC1Oc2cc3oc4c(O)c(O)ccc4c(=O)c3c(O)c2C1(C)C` (stereo unspecified): the activity change, negative = inhibition is -0.538% (inactive).
Regarding `O=C1CC(N2CCN(c3nc4ccccc4s3)CC2)C(=O)N1Cc1cccs1` (stereo unspecified), the half-maximal activity concentration (AC50) is 4.66 µM.
In the case of `C=CC(C)(C)c1c(O)c(CC=C(C)C)c(O)c2c(=O)c3ccc(O)c(O)c3oc12`, the AC50 is 6.76 µM.
Turning to `O=C1C2C3C=CC(CNS(=O)(=O)c4ccccc4)(O3)C2C(=O)N1c1ccc(Cl)cc1` (stereo unspecified), the AC50 is 3.73 µM.
For the compound `CN(C)c1ccc(C=c2c3ccccc3n3c2cc(-c2ccccc2)[n+]3C)cc1`, the concentration at half-maximal activity (AC50) is 4.33 µM.
Take `O=C1[C@@H]2C(c3cccnc3)=NO[C@@H]2C(=O)N1c1ccc(Br)cc1`: the half-maximal activity concentration (AC50) is 3.1 µM.
As for `CCn1c(CNc2ccc(Cl)cc2)nnc1SCc1ccc(Cl)cc1`, the concentration at half-maximal activity (AC50) is 4.37 µM.
Consider `CN1CCN(C(c2ccc(Cl)cc2)c2cc(Cl)c3cccnc3c2O)CC1` (stereo unspecified), for which the half-maximal activity concentration (AC50) was 0.615 µM.
The same measure, in the same setting: then `Cc1ccc(S(=O)(=O)N(C(=O)c2ccncc2)c2ccc(OC(=O)c3ccncc3)cc2)c(C)c1`, with 3.45 µM; and `O=C(C#Cc1cccc([N+](=O)[O-])c1)c1ccccc1`, with 0.36 µM; and `CCCCCCCCCCOC(=O)Cn1c(COc2ccc(OC)cc2)[n+](C)c2ccccc21`, with 24.4 µM.
As for `Cc1cccc(N2C(=O)C=CC2=O)c1`, the AC50 was 0.372 µM.
Consider `CCOc1ccc2c(ccc(/C=C/c3cc(C)c4cccnc4c3O)[n+]2C)c1`, for which the AC50 was 4.11 µM.
Take `CCCOC(=O)c1ccc(Oc2cn[nH]c2-c2ccc(OCC)cc2O)cc1`: the AC50 is less than 0.195 µM.
On to `O=[N+]([O-])/C=C/c1cn(Cc2ccc(F)cc2)c2ccccc12`, for which the half-maximal activity concentration (AC50) is 5.61 µM.
The same measure, in the same setting: then `CC1CC(C)C(=NNC(N)=O)C(C(O)CC2CCC(=O)NC2=O)C1` (stereo unspecified), with less than 0.195 µM; and `COc1ccc(N(C(=O)c2ccncc2)S(=O)(=O)c2ccccc2)cc1`, with 1.66 µM.
`CC(=NNC(=S)N1CCN(C2CCCCCC2)CC1)c1ccccn1`: the concentration at half-maximal activity (AC50) was 3.95 µM.
For the compound `O=C(CC(O)(C(F)(F)F)C(F)(F)F)Nc1ccc(Cl)c(Cl)c1`, the AC50 is 17.5 µM.
As for `C(=NN=C1c2ccccc2-c2ccccc21)c1c[nH]c2ccccc12`, the half-maximal activity concentration (AC50) is 2.72 µM.
With `COc1cccc2c1C(=O)c1c(O)c3c(c(O)c1C2=O)CC(O)(C(=O)CO)CC3OC1CC(N(C)C)C(O)C(C)O1` (stereo unspecified), the half-maximal activity concentration (AC50) is 1.09 µM.
For `CC(NNC(=S)N1CCN(c2ccccn2)CC1)c1nccc2ccccc12` (stereo unspecified), the half-maximal activity concentration (AC50) was 2.74 µM.
For the compound `CCn1c(CNc2ccc(Cl)cc2)nnc1SCc1ccccc1`, the AC50 was 2.26 µM.
Consider `CCOC(=O)C1CCCN(C2CC(=O)N(c3cccc(C(F)(F)F)c3)C2=O)C1` (stereo unspecified), for which the AC50 is 4.24 µM.
Consider `O=C1S/C(=C/c2ccc(N3CCOCC3)o2)C(=O)N1Cc1c(F)cccc1Cl`, for which the activity change, negative = inhibition is 23.4% (inactive).
Consider `Cc1ccc(OCc2n[nH]c(=S)n2C2CCCCC2)cc1`, for which the AC50 was 23.6 µM.
Same read-out and setting: then `O=C1C2C3C=CC(CNS(=O)(=O)c4ccccc4[N+](=O)[O-])(O3)C2C(=O)N1c1ccccc1` (stereo unspecified), with 10.3 µM.
As to `Nc1c(C(=O)Nc2ccc3c(c2)OCCO3)nnn1Cc1ccccc1Cl`, the concentration at half-maximal activity (AC50) was 5.48 µM.
Regarding `O=C(OCn1ncc(Br)c(Br)c1=O)c1ccccc1Cl`, the AC50 is 4.29 µM.
For `Cc1cc(C)cc(N=Cc2ccc([N+](=O)[O-])s2)c1`, the AC50 was 3.94 µM.
The same measure, in the same setting: then `Oc1c(C(Nc2nc3ccccc3s2)c2ccco2)ccc2cccnc12` (stereo unspecified), with 24.8 µM.
As to `COc1ccc2c(c1)CCc1c(C(=O)N3CCc4ccccc4C3)noc1-2`, the AC50 is 4.5 µM.
As for `Cc1cc(N2C(=O)C=CC2=O)c([N+](=O)[O-])cc1C`, the AC50 is 1.18 µM.
Same read-out and setting: then `O=C(/C=C/c1cc(Br)ccc1O)c1ccco1`, with 5.35 µM.
Turning to `O=S(=O)(/C=C/c1ccccc1)NC1CCCCCCC1`, the AC50 is 1.18 µM.
`CN(c1ccccc1)c1ccc(/C=C/[N+](=O)[O-])cc1`: the AC50 is 5.24 µM.
As for `COc1cc(/C=C2\SC(=S)N(Nc3ncc(C(F)(F)F)cc3Cl)C2=O)ccc1O`, the AC50 is 25.8 µM.
Consider `Cc1ccc(/C=C/C(=O)c2ccccc(=O)c2O)c(C)c1`, for which the AC50 is 1.93 µM.
Same read-out and setting: as for `CCOC(=O)c1ccc(N2C(=O)CC(N3CCC(O)(c4ccc(Cl)cc4)CC3)C2=O)cc1` (stereo unspecified), the figure is 4.04 µM; as for `C(C#CCCCCCCCCC[n+]1ccccc1)#CCCCCCCCCC[n+]1ccccc1`, 4.06 µM.
`O=S1(=O)C=C(Sc2nnc(-c3ccccc3)o2)c2ccccc21`: the AC50 is 3.57 µM.
With `O=C(Nc1nnc(-c2ccc3c(c2)CCCC3)o1)c1ccc(Cl)cc1Cl`, the AC50 is 3.35 µM.
Take `O=C(NCCCCc1ccccc1)c1ccc(Br)cc1`: the half-maximal activity concentration (AC50) was 4.42 µM.
Same read-out and setting: as for `CC1OC(CC(=O)O)CC2=C1C(=O)c1c(O)cccc1C2=O` (stereo unspecified), the figure is less than 0.195 µM; as for `O=c1c2ccccc2nc(-c2ccc(-c3ccccc3)cc2)n1-c1ccncc1`, 5.21 µM; as for `CCCC(=O)NC(c1ccc2c(c1)OCO2)c1cc(Cl)c2cccnc2c1O` (stereo unspecified), 4.45 µM.
On the same count and under the same terms, then `COc1ccc(-c2cc(C(=O)N3CCN(c4ccccc4F)CC3)c3ccccc3n2)c(OC)c1`, with 4.09 µM.
Still for that read-out and setting: then `O=C1/C(=C\c2cccc(O)c2O)SC(=S)N1Cc1ccccc1`, with 9.6 µM; and `Cc1ccc(N2C(=O)C3C4C=CC(CNC(=S)N5CCN(c6ccccn6)CC5)(O4)C3C2=O)cc1` (stereo unspecified), with 8.31 µM.
Take `Cc1ccc(NC(=O)c2cc(N3C(=O)C=CC3=O)ccc2Cl)cc1C`: the half-maximal activity concentration (AC50) is 0.92 µM.
Consider `CCCCC(=O)NC(c1cccc([N+](=O)[O-])c1)c1ccc2cccnc2c1O` (stereo unspecified), for which the AC50 is 2.62 µM.
As for `O=C(C=Cc1cccc(O)c1)c1ccccc1O`, the AC50 was 1.89 µM.
For `c1ccc(-c2ccc(C(c3ccccc3)n3ccnc3)cc2)cc1` (stereo unspecified), the half-maximal activity concentration (AC50) was 1.07 µM.
As for `CCCOC(=O)c1ccc(Oc2cn[nH]c2-c2ccc(OC)cc2O)cc1`, the concentration at half-maximal activity (AC50) is 6 µM.
The same measure, in the same setting: as for `CCN1C(=O)/C(=C\C(=O)c2cccs2)c2cc(Br)ccc21`, the figure is 4.28 µM.
Turning to `O=C(CC(n1cncn1)C(Cl)(Cl)Cl)c1ccc([N+](=O)[O-])cc1` (stereo unspecified), the concentration at half-maximal activity (AC50) was 4.42 µM.
As to `O=[N+]([O-])c1cc2no[n+]([O-])c2cc1N1CCCCC1`, the AC50 is 0.877 µM.
Take `Cc1cc(/C=c2\sc3nc4ccccc4n3c2=O)c(C)n1-c1ccc(C(=O)O)cc1`: the activity change, negative = inhibition was 22.6% (inactive).
On to `COc1ccc(C)cc1N=Nc1ccc(O)c2ncccc12`, for which the half-maximal activity concentration (AC50) was 1.18 µM.
Still for that read-out and setting: then `CC(=O)Nc1ccc(Nc2cc(C(C)C)nc3c(-c4ccccc4)c(C)nn23)cc1`, with 3.68 µM; and `Cc1ccc(C(=O)OCn2ncc(Cl)c(Cl)c2=O)cc1`, with 3.23 µM.
In the case of `O=C1NC(=S)NC(=O)C1=Cc1ccc(Br)s1`, the AC50 is 4.48 µM.
The same measure, in the same setting: then `Cc1ccc(Nc2nc(N)c([N+](=O)[O-])c(N3CCCC(C)C3)n2)cc1C` (stereo unspecified), with 3.73 µM; and `C[C@@H]1C[C@@H]2O[C@H]2/C=C\C=C\C(=O)Cc2c(Cl)c(O)cc(O)c2C(=O)O1`, with 2.51 µM.
As to `CN(C)c1ccc(-c2cc(O)c3ncccc3c2)cc1`, the activity change, negative = inhibition is 26.4% (inactive).
Consider `O=c1c2ccccc2nnn1CSc1nnc(COc2ccc(Cl)cc2)n1Cc1ccco1`, for which the concentration at half-maximal activity (AC50) is 3.31 µM.
The same measure, in the same setting: then `CCOC(=O)COc1ccc2ccccc2c1/C=C/[N+](=O)[O-]`, with 4.46 µM.
Turning to `OCCCn1c(C2CCCN2c2nc(-c3ccc(F)cc3)cs2)nc2cc(Cl)c(Cl)cc21` (stereo unspecified), the concentration at half-maximal activity (AC50) was 5.62 µM.
On to `COc1ccccc1C(=O)NNC(=S)NC(=O)c1ccco1`, for which the AC50 was 2.41 µM.
As for `O=C1C(Cl)=C(NCCc2ccccc2)C(=O)c2ccccc21`, the AC50 is 0.556 µM.
On the same count and under the same terms, as for `COc1ccc2c(c1)[C@H]1[C@H](CO2)[C@H](c2ccccc2)[C@]2(C)C(=O)Nc3ccc(C)cc3C(=O)N12`, the figure is 4.75 µM; as for `O=C1OCC(CO)(CO)N=C1NNc1ccc(Cl)c(Cl)c1`, 2.2 µM.
Consider `OC(CNCCC1C=Nc2ccccc21)Cn1c2ccc(Cl)cc2c2cc(Cl)ccc21` (stereo unspecified), for which the AC50 is 7.56 µM.
Regarding `COc1ccc(NC(=O)CCC(=O)N/N=C/c2ccc([N+](=O)[O-])s2)cc1`, the concentration at half-maximal activity (AC50) is 3.33 µM.
Turning to `CN(C)c1ccc(/C=C/c2ccc3c4ccccc4ccc3[n+]2-c2ccccc2)cc1`, the half-maximal activity concentration (AC50) is 3.47 µM.
In the case of `CCC(=O)NC(c1ccc(C)cc1)c1ccc2cccnc2c1O` (stereo unspecified), the AC50 was 3.48 µM.
Turning to `CCOC(=O)c1c(C)oc2c1c(C(c1cccnc1)N1CCOCC1)c(O)c1ccccc12` (stereo unspecified), the AC50 was 5.35 µM.
Regarding `Cc1cccc(Nc2nc(N)c([N+](=O)[O-])c(N3CC(C)CC(C)C3)n2)c1` (stereo unspecified), the AC50 is 3.22 µM.
As for `O=C(Nc1nc(-c2cccs2)cs1)c1ccc([N+](=O)[O-])o1`, the concentration at half-maximal activity (AC50) was 5.69 µM.
With `Cc1ccc(S(=O)(=O)Nc2cc(Cl)c(O)c3ncccc23)cc1`, the AC50 is 2.09 µM.
On to `CCCc1cc(=O)oc2cc(OCc3ccc(C(=O)O)cc3)ccc12`, for which the AC50 was 2.73 µM.
Regarding `O=C(/C(=C/O)N=Nc1ccccc1)c1ccc(Cl)cc1`, the AC50 is 6.25 µM.
The same measure, in the same setting: then `COc1ccc(C2=CC3=C(Br)C(=O)C(C)(OC(=O)c4ccco4)C(=O)C3=CO2)cc1` (stereo unspecified), with 3 µM; and `CN1C(=O)C(N=Nc2ccc([N+](=O)[O-])cc2)SC1=S` (stereo unspecified), with 3.87 µM.
For `CC(C)=CCc1c(O)ccc(C2COc3c(CC=C(C)C)c(O)cc(O)c3C2=O)c1O` (stereo unspecified), the activity change, negative = inhibition was -110% (inactive).
Turning to `Oc1ccc(Cl)cc1/C=C/c1ccc2cccc(O)c2n1`, the concentration at half-maximal activity (AC50) is 2.66 µM.
`CCC(C)n1ncn(-c2ccc(N3CCN(c4ccc(OCC5COC(Cn6cncn6)(c6ccc(Cl)cc6Cl)O5)cc4)CC3)cc2)c1=O` (stereo unspecified): the AC50 is less than 0.195 µM.
For `O=S(=O)(NC1CCCCCC1)c1ccc(Br)s1`, the AC50 is 3.13 µM.
